Columns and labels:
[1] = Stability of the compound in PBS buffer at pH 7.2 assessed as half life at 25 degreeC by HPLC analysis; assay type: physicochemical
[2] = Stability in human plasma assessed as half life at 37 degreeC by LC-MS/MS analysis; assay type: ADME, cell-free
[3] = Stability of the compound in PBS buffer at pH 7.2 assessed as half life at 37 degreeC by LC-MS/MS analysis; assay type: physicochemical
[4] = Stability of the compound in PBS buffer at 4 degreeC; assay type: physicochemical
[5] = Stability of the compound in PBS buffer at 37 degreeC; assay type: physicochemical
[6] = Stability of the compound at pH 5; assay type: physicochemical; conditions: buffer
[7] = Stability of the compound at pH 3; assay type: physicochemical; conditions: buffer
[8] = Stability of the compound in 0.1 M HCl; assay type: physicochemical
[9] = Stability of the compound in 0.15 M NaCl; assay type: physicochemical
[10] = Stability of the compound in 1 M NaCl; assay type: physicochemical
[11] = Cmax in Sprague-Dawley rat at 10 mg/kg,im measured for 0.25 to 10 hrs by LC-MS/MS analysis; assay type: ADME, organism-based; set-up: time lower 0.25 hrs, dose 10 mg/kg, time upper 10 hrs, route im; conditions: in vivo
[12] = Cmax in Sprague-Dawley rat at 2 mg/kg,iv measured for 0.08 to 10 hrs by LC-MS/MS analysis; assay type: ADME, organism-based; set-up: dose 2 mg/kg, time 0.08-10 hrs, route iv; conditions: in vivo
[13] = Cmax in Sprague-Dawley rat assessed as cmax of parent compound at 10 mg/kg,IM measured for 0.25 to 10 hrs by LC-MS/MS analysis; assay type: ADME, organism-based; set-up: time upper 10 hrs, time lower 0.25 hrs, dose 10 mg/kg, route im; conditions: in vivo
[14] = Cmax in Sprague-Dawley rat assessed as cmax of parent compound at 2 mg/kg,iv measured for 0.08 to 10 hrs by LC-MS/MS analysis; assay type: ADME, organism-based; set-up: dose 2 mg/kg, time 0.08-10 hrs, route iv; conditions: in vivo
[15] = AUC (0-last) in Sprague-Dawley rat at 10 mg/kg, IM measured for 0.25 to 10 hrs by LC-MS/MS analysis; assay type: ADME, organism-based; set-up: time upper 10 hrs, dose 10 mg/kg, time lower 0.25 hrs, route im; conditions: in vivo
[16] = AUC (0-last) in Sprague-Dawley rat at 2 mg/kg,iv measured for 0.08 to 10 hrs by LC-MS/MS analysis; assay type: ADME, organism-based; set-up: dose 2 mg/kg, time 0.08-10 hrs, route iv; conditions: in vivo
[17] = AUC (0-last) in Sprague-Dawley rat assessed as AUC (0-last) of parent compound at 10 mg/kg,IM measured for 0.25 to 10 hrs by LC-MS/MS analysis; assay type: ADME, organism-based; set-up: time 0.25-10 hrs, dose 10 mg/kg, route im; conditions: in vivo
[18] = AUC (0-last) in Sprague-Dawley rat assessed as AUC (0-last) of parent compound at 2 mg/kg,iv measured for 0.08 to 10 hrs by LC-MS/MS analysis; assay type: ADME, organism-based; set-up: dose 2 mg/kg, time upper 10 hrs, time lower 0.08 hrs, route iv; conditions: in vivo
[19] = test system: Rattus norvegicus; experiment: Neuroprotective activity against Sprague-Dawley rat model of traumatic brain injury assessed as reduction in cerebral edema at 10 mg/kg, IM administered for 1 to 6 hrs measured after 24 hrs relative to control; assay type: functional; set-up: scale not given: the % may be the effect or the level left; conditions: time 25-30 hrs
[20] = Solubility of compound in normal saline; assay type: physicochemical
[21] = Stability of the compound in PBS buffer at pH 7.2 assessed as half life in the presence of MeCN by HPLC analysis; assay type: physicochemical
[22] = Aqueous solubility of compound; assay type: physicochemical; conditions: buffer
[23] = Cytotoxicity against human HepG2 cells by Maestro Z Impedance Assay; assay type: toxicity, cell-based
[24] = test system: HepG2; experiment: Cytotoxicity against human HepG2 cells assessed as maximum cytolysis at 100 uM by Maestro Z Impedance Assay relative to control; assay type: toxicity, cell-based; conditions: hepg2, 100 µM

What does the source list for `CNCCN(C)C(=O)O/N=C(\C)[C@H]1CC[C@H]2[C@@H]3CCC4=CC(=O)CC[C@]4(C)[C@H]3CC[C@]12C.Cl`?
half-life [1]: 46.9 h; half-life [2]: 2.7 h

Which results are given for `C/C(=N\OC(=O)N(C)C[C@@H]1CCCN1)[C@H]1CC[C@H]2[C@@H]3CCC4=CC(=O)CC[C@]4(C)[C@H]3CC[C@]12C.Cl`?
half-life [1]: 1.9 h; half-life [3]: 1.9 h; half-life [4]: 74.4 h; half-life [5]: 1 h; half-life [6]: 175 h; half-life [7]: 192 h; half-life [8]: 1.3 h; half-life [9]: > 240 h; half-life [10]: 168 h; Cmax [11]: 224 ng/mL; Cmax [12]: 122 ng/mL; Cmax [13]: 954 ng/mL; Cmax [14]: 328 ng/mL; AUC(0-t) [15]: 288 ng·h/mL; AUC(0-t) [16]: 62.9 ng·h/mL; AUClast [17]: 1304 ng·h/mL; AUClast [18]: 176 ng·h/mL; Activity [19]: 40%; solubility [20]: > 50 mg/mL

Which half-life [1] does the source give for `C/C(=N\OC(=O)N(C)C[C@@H]1CCCCN1)[C@H]1CC[C@H]2[C@@H]3CCC4=CC(=O)CC[C@]4(C)[C@H]3CC[C@]12C.Cl` here?
Its half-life is greater than 240 h.

With `C/C(=N\OC(=O)N(C)CCNCCOC(F)(F)F)[C@H]1CC[C@H]2[C@@H]3CCC4=CC(=O)CC[C@]4(C)[C@H]3CC[C@]12C.Cl` as the compound, how does the half-life [21] read?
Its half-life is 28.5 h.

And the half-life [2]?
The half-life was 1.7 h.

What about the solubility [22] of the same compound?
The solubility was less than 1 mg/mL.

Which Cmax [11] does the source give for `C/C(=N\OCOP(=O)([O-])[O-])[C@H]1CC[C@H]2[C@@H]3CCC4=CC(=O)CC[C@]4(C)[C@H]3CC[C@]12C.[Na+].[Na+]` here?
Its Cmax is 1360 ng/mL.

What about the Cmax [12] of the same compound?
Its Cmax is 182 ng/mL.

What about the Cmax [13] of the same compound?
Its Cmax is 425 ng/mL.

What about the Cmax [14] of the same compound?
Its Cmax is 219 ng/mL.

What about the AUC(0-t) [15] of the same compound?
Its AUC(0-t) is 724 ng·h/mL.

What about the AUC(0-t) [16] of the same compound?
The AUC(0-t) was 22 ng·h/mL.

And the AUClast [17]?
Its AUClast is 753 ng·h/mL.

What about the AUClast [18] of the same compound?
Its AUClast is 48 ng·h/mL.

What about the solubility [22] of the same compound?
Its solubility is greater than 150 mg/mL.

With `CC(=O)[C@H]1CC[C@H]2[C@@H]3CCC4=C/C(=N/OC(=O)[C@@H](N)C(C)C)CC[C@]4(C)[C@H]3CC[C@]12C.Cl` as the compound, how does the half-life [1] read?
The half-life was 10 h.

What about the solubility [22] of the same compound?
Its solubility is 172 µM.

Which results are given for `C/C(=N\OC(=O)[C@@H](N)C(C)C)[C@H]1CC[C@H]2[C@@H]3CCC4=CC(=O)CC[C@]4(C)[C@H]3CC[C@]12C.Cl`?
half-life [1]: 11 h; solubility [22]: 146 µM

With `C/C(=N\OC(=O)OC[C@@H]1CCCN1)[C@H]1CC[C@H]2[C@@H]3CCC4=CC(=O)CC[C@]4(C)[C@H]3CC[C@]12C.Cl` as the compound, how does the half-life [1] read?
Its half-life is 0.09 h.

What does the source list for `C/C(=N\OC(=O)N(C)CCNCCO)[C@H]1CC[C@H]2[C@@H]3CCC4=CC(=O)CC[C@]4(C)[C@H]3CC[C@]12C.Cl`?
half-life [1]: 30.4 h; half-life [2]: 2.8 h

With `CNC[C@@H]1CCCN1C(=O)O/N=C(\C)[C@H]1CC[C@H]2[C@@H]3CCC4=CC(=O)CC[C@]4(C)[C@H]3CC[C@]12C.Cl` as the compound, how does the half-life [1] read?
Its half-life is greater than 240 h.

What about the half-life [2] of the same compound?
The half-life was greater than 4 h.

Which results are given for `CNCCCN(C)C(=O)O/N=C(\C)[C@H]1CC[C@H]2[C@@H]3CCC4=CC(=O)CC[C@]4(C)[C@H]3CC[C@]12C.Cl`?
half-life [1]: > 240 h; half-life [2]: > 4 h

With `CNCC(C)(C)CN(C)C(=O)O/N=C(\C)[C@H]1CC[C@H]2[C@@H]3CCC4=CC(=O)CC[C@]4(C)[C@H]3CC[C@]12C.Cl` as the compound, how does the half-life [1] read?
Its half-life is greater than 240 h.

And the half-life [2]?
Its half-life is greater than 4 h.

What does the source list for `C/C(=N\OC(=O)NCCN(C)C)[C@H]1CC[C@H]2[C@@H]3CCC4=CC(=O)CC[C@]4(C)[C@H]3CC[C@]12C.Cl`?
half-life [1]: > 240 h; half-life [2]: > 3.5 h

What does the source list for `C/C(=N\OC(=O)NCCN)[C@H]1CC[C@H]2[C@@H]3CCC4=CC(=O)CC[C@]4(C)[C@H]3CC[C@]12C.Cl`?
half-life [1]: > 240 h; half-life [2]: > 2 h

For `C/C(=N\OC(=O)NC[C@@H]1CCCCN1)[C@H]1CC[C@H]2[C@@H]3CCC4=CC(=O)CC[C@]4(C)[C@H]3CC[C@]12C.Cl`, which half-life [1] is on record?
The half-life was greater than 240 h.

What does the source list for `C/C(=N\OC(=O)NC[C@@H]1CCCN1)[C@H]1CC[C@H]2[C@@H]3CCC4=CC(=O)CC[C@]4(C)[C@H]3CC[C@]12C.Cl`?
half-life [1]: > 240 h; half-life [2]: > 4 h

With `CNCCN(CCO)C(=O)O/N=C(\C)[C@H]1CC[C@H]2[C@@H]3CCC4=CC(=O)CC[C@]4(C)[C@H]3CC[C@]12C.Cl` as the compound, how does the half-life [1] read?
Its half-life is 24.8 h.

What about the half-life [2] of the same compound?
The half-life was 1.6 h.

Which results are given for `C/C(=N\OC(=O)N1CCC[C@H]1CN)[C@H]1CC[C@H]2[C@@H]3CCC4=CC(=O)CC[C@]4(C)[C@H]3CC[C@]12C.Cl`?
half-life [1]: > 240 h; half-life [2]: > 4 h

For `C/C(=N\OC(=O)OCCN)[C@H]1CC[C@H]2[C@@H]3CCC4=CC(=O)CC[C@]4(C)[C@H]3CC[C@]12C.Cl`, which half-life [1] is on record?
The half-life was 0.11 h.

Which half-life [1] does the source give for `C/C(=N\OC(=O)OCCN(C)C)[C@H]1CC[C@H]2[C@@H]3CCC4=CC(=O)CC[C@]4(C)[C@H]3CC[C@]12C.Cl` here?
Its half-life is 3.5 h.

What about the half-life [2] of the same compound?
Its half-life is 7.2 h.

Which half-life [3] does the source give for `C/C(=N\OC(=O)N(C)C[C@@H]1CCCN1C)[C@H]1CC[C@H]2[C@@H]3CCC4=CC(=O)CC[C@]4(C)[C@H]3CC[C@]12C.Cl` here?
The half-life was greater than 2 h.

What about the half-life [2] of the same compound?
Its half-life is 0.9 h.

For `CN1C[C@@H]2CCCN2C1=O`, which CC50 [23] is on record?
Its CC50 is greater than 100 µM.

And the Activity [24]?
Its Activity is 30%.

Which results are given for `C/C(=N\OC(=O)N(C)CCNCCF)[C@H]1CC[C@H]2[C@@H]3CCC4=CC(=O)CC[C@]4(C)[C@H]3CC[C@]12C.Cl`?
half-life [1]: 36.1 h; half-life [2]: 2.2 h

Reference: ChEMBL document CHEMBL5338742, “Neurotherapeutic Potential of Water-Soluble pH-Responsive Prodrugs of EIDD-036 in Traumatic Brain Injury” (J Med Chem, 2023)
